assay: Column experiment (Example 3): nitrate-polluted well water passed through column filled with material; settings: well water (nitrate nitrogen 14 mg/L) after column, passing time 5.5 hours, 21° C.
Excerpt: FIG. 3 is a view showing the structure of a column experiment apparatus used for effecting the method of decreasing nitrate nitrogen and volatile organic compounds in Example 3. Here, the column is a vessel having a function of decreasing nitrate nitrogen and volatile organic compounds, and decreases nitrate nitrogen and volatile organic compounds by allowing groundwater such as well water and the like to pass. In Example 3, a resin column having a diameter of 28 cm and a height of 2 m was used.
Well water evacuated from a well 23 by a pump 24 flow into this column 21 through an introduction port 25 of the column 21. It is so constituted that well water which comes into with the experiment material 22 while rising in the column 21, is discharged from an outflow port 26 formed at the upper part of the column 21.
Column experiments were conducted as described below using the column experiment apparatus constituted as described above.
From already-provided well polluted with nitrate nitrogen (nitrate nitrogen concentration: 14 mg/L), well water was evacuated by a pump 24 and allowed to flow into the column 21. In Example 3, six resin columns having a diameter of 28 cm and a height of 2 m were used, and experiments were conducted on 12 kinds of experiment materials using the resin columns each twice.
In the examples, experiment materials of the present invention such as fatty acids and alcohols were filled in columns (column Nos. 1 to 8) and comparative materials of conventional technologies were filled in columns (column Nos. 9 to 12) for comparison, and the evacuated groundwater was passed through them. In these experiments, substantial filling heights of the experiment materials in the columns were all 1.8 m. The passing time of groundwater in the column was 5.5 hours, and the average environment temperature during the experiment period was 21° C.
The nitrate nitrogen concentration, ammonia nitrogen concentration and total carbon concentration of the well water after passing through the column 30 days after initiation of passing of well water which is experiment initiation were measured.

Molecule	Nitrate nitrogen concentration after 30 days [mg/L]
CCCCCCCCCCCCCCCCCCCCCC(=O)O [Behenic acid]	1.8
CCCCCCCCCCCCCCCCCC(=O)OC [Methyl stearate]	1.4
CCCCCCCCCCCCCCO [Myristyl alcohol]	2.5
OC[C@H]1O[C@@](CO)(O[C@H]2O[C@H](CO)[C@@H](O)[C@H](O)[C@H]2O)[C@@H](O)[C@@H]1O [Sucrose, reference compound]	15.0
Sorbitan monomyristate	1.6

assay: Well experiment in soil polluted with tetrachloroethylene (Example 8): analysis of water collected from the well; settings: 30 kg added over 6 days, initial about 0.25 mg/L
Method: In the method of decreasing nitrate nitrogen and volatile organic compounds in Example 8, an experiment was conducted using a well provided in soil polluted with tetrachloroethylene.
It had been known by previous investigation that about 125 m^2 of the surface of soil was polluted, and a water-containing layer at a position 6 m below the ground surface was polluted. In this water-containing layer, the tetrachloroethylene concentration was about 0.25 mg/L.
30 kg of stearylamine was gradually added over 6 days through a well in the polluted soil, and the tetrachloroethylene concentration, total carbon concentration and total nitrogen concentration after 90 days were analyzed from water collected from the well.

Molecule	tetrachloroethylene concentration after 90 days [mg/L]
CCCCCCCCCCCCCCCCCCN [stearylamine]	0.08

Reference: patent US7030287B2, “Method of decreasing nitrate nitrogen and volatile organic compound in soil and groundwater” (Matsushita Electric Industrial Co., Ltd., priority 2001, dated 2006)
